From ChEMBL document CHEMBL1130647, “Synthesis and in vitro cytotoxicity of 3-substituted-1,8-diazaanthraquinones produced by Lewis-acid catalyzed hetero Diels-Alder reaction” (Bioorg Med Chem Lett, 1998)

How the values were obtained:
Format in all cases: functional, cell-based
Details in all cases: Homo sapiens
HOP-62 = assay: In vitro cytotoxic activity against HOP62 (lung cancer) cell lines by using SRB assay
SK-OV-3 = assay: In vitro cytotoxic activity against SK-OV-3 (ovarian carcinoma) cell lines by using SRB assay
SF-295 = assay: In vitro cytotoxic activity against SF-295 (CNS carcinoma) cell lines by using SRB assay
HCT-15 = assay: In vitro cytotoxic activity against HCT15 (colon cancer) cell lines by using SRB assay

CC(C)NC(=O)OCc1cnc2c(c1)C(=O)c1cccnc1C2=O
IC50 (HOP-62): 6 nM | IC50 (SK-OV-3): 20 nM | IC50 (SF-295): 100 nM | IC50 (HCT-15): 20 nM

O=C1c2cccnc2C(=O)c2ncc(CO)cc21
IC50 (HOP-62): 100 nM | IC50 (SK-OV-3): 200 nM | IC50 (SF-295): 300 nM | IC50 (HCT-15): 400 nM

O=C1c2cccnc2C(=O)c2ncc(CBr)cc21
IC50 (HOP-62): 55 nM | IC50 (SK-OV-3): 300 nM | IC50 (SF-295): 500 nM | IC50 (HCT-15): 400 nM

Cc1cnc2c(c1)C(=O)c1cccnc1C2=O
IC50 (HOP-62): 15 nM | IC50 (SK-OV-3): 40 nM | IC50 (SF-295): 250 nM | IC50 (HCT-15): 350 nM

COc1cccc2c1C(=O)c1c(O)c3c(c(O)c1C2=O)C[C@@](O)(C(=O)CO)C[C@@H]3O[C@H]1C[C@H](N)[C@H](O)[C@H](C)O1 [DOXORUBICIN]
IC50 (HOP-62): 4 nM | IC50 (SK-OV-3): 20 nM | IC50 (SF-295): 35 nM | IC50 (HCT-15): 100 nM
